Assay results from BindingDB's records for doi:10.1021/jm00159a032 (1986).

Target: Thymidylate synthase (Streptococcus faecium)
Test: Inhibitory activity against thymidylate synthase of Streptococcus faecium

IC50: 5.5 nM
SMILES: C#CN(Cc1ccc2nc(N)[nH]c(=O)c2c1)c1ccc(C(=O)NC(CCC(=O)NC(CCC(=O)NC(CCC(=O)O)C(=O)O)C(=O)O)C(=O)O)cc1 (stereo unspecified) [4-[4-(4-{4-[(2-Amino-4-hydroxy-quinazolin-6-ylmethyl)-ethynyl-amino]-benzoylamino}-4-carboxy-butyrylamino)-4-carboxy-butyrylamino]-4-carboxy-butyric acid anion]
